Assay results published in ChEMBL document CHEMBL1201862, “PubChem BioAssay data set” (2004).
Structures can show the parent of a compound that is named as a salt. The source made the active and inactive calls.

Assays:
Beta-galactosidase = Beta-galactosidase (Escherichia coli, UniProt Q8VNN2); assay: Dose response counterscreen for EBI2 assay utilizing the enzyme, b-galactosidase.; assay type: functional
H9c2 = assay: cells; assay type: functional, cell-based; conditions: Rattus norvegicus, H9c2, Myocardium;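 further: confirmatory concentration-response retest of ultra-high-throughput screening hits for modulation of myocardial damage; cell death induced by hydrogen peroxide oxidative stress; compound pretreatment for 60 min then peroxide exposure for 2 h; potency is for protecting the cells against peroxide damage rather than for killing them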
[1] = viability of uninfected HEp-2 cells – cell-based, HTS, cytotoxicity control for RSV inhibitor project, dose response (AID 2410); assay type: functional; conditions: human respiratory syncytial virus
[2] = potency of ADAM10 substrate cleavage blockers – biochemical, QFRET, dose response (AID 743254);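 further: ADAM10 enzyme with the DM2 quenched FRET peptide as substrate; EDANS fluorescence gain as the protease cuts the substrate; inhibitor potency against ADAM10 proteolytic activity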
[3] = biological target: Disintegrin and metalloproteinase domain-containing protein 17 (Homo sapiens, UniProt P78536); assay: inhibition of ADAM17 substrate cleavage – biochemical, quenched FRET substrate, counter-screen for ADAM10 exosite inhibitor project, dose response (AID 743253)
Sequence of Disintegrin and metalloproteinase domain-containing protein 17 (P78536 whole entry, the tested form may be a part): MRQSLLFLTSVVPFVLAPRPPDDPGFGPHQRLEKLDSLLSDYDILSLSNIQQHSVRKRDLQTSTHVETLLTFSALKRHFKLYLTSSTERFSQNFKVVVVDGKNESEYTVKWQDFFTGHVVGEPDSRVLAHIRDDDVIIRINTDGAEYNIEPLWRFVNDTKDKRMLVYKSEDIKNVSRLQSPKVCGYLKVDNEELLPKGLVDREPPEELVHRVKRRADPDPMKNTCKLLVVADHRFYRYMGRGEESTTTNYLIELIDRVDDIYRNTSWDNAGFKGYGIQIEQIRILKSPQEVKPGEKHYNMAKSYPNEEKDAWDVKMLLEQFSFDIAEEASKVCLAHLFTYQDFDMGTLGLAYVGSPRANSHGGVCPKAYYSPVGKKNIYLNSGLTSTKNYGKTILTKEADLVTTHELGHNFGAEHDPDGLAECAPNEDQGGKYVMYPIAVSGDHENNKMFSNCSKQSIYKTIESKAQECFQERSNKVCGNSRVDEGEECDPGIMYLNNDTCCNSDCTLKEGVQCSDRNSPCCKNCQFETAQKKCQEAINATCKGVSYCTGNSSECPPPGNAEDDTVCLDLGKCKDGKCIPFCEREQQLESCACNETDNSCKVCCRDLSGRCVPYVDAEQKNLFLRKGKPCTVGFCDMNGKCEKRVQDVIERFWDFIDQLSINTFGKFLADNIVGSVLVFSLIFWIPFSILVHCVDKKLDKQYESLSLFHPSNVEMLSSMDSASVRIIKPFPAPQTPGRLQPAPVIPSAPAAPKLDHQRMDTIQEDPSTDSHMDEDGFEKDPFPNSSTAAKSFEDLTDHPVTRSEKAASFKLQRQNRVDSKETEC

cells [4] = assay type: functional, cell-based
[5] = viability of PTEN-deleted HCT116 cells – cell-based, HCT116 PTEN knockout, dose response (AID 1047); assay type: functional;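 further: HCT116 colon tumor cells with PTEN knocked out; cells exposed to compound for 60 hours before readout; potency for loss of cell viability measured by luminescence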
[6] = viability of HCT116 lacking mutant beta-catenin – cell-based, human colon tumor, dose response (AID 1045); assay type: functional;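 further: HCT116 colon tumor cells with beta catenin knocked out; cells exposed to compound for 60 hours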
HEK293 = assay: EBV LMP1 TES2 canonical NF-kB signalling blockers – cell-based, HEK293, luciferase, cherry-pick, dose response (AID 588343); assay type: functional; conditions: Homo sapiens
[7] = biological target: T1, Trace amine-associated receptor 1 (Homo sapiens, UniProt Q96RJ0); assay: Fluorescence-based cell-based high throughput dose response assay to identify agonists of the human trace amine associated receptor 1 (TAAR1).; assay type: functional
T1 sequence (Q96RJ0 whole entry): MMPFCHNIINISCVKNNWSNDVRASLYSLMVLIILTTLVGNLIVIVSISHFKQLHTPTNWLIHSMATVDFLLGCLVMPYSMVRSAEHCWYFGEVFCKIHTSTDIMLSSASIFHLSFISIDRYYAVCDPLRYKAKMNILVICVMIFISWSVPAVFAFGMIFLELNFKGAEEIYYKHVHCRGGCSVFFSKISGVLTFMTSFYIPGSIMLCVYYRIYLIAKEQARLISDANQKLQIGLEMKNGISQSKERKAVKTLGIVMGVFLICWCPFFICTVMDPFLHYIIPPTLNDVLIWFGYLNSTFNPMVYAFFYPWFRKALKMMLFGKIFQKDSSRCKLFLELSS

[8] = biological target: T1, Trace amine-associated receptor 1; assay: Counterscreen for agonists of the human trace amine associated receptor 1 (hTAAR1): Fluorescence-based cell-based high throughput dose response assay to identify hTAAR1 agonist that also desensitize TAAR1 receptor response.; assay type: functional
cells [9] = assay type: functional, cell-based; remark: listed apart in the source
fMet-Leu-Phe receptor = biological target: T2, fMet-Leu-Phe receptor (Homo sapiens, UniProt P21462); assay: formyl peptide receptor binders – dose response (AID 519); assay type: functional
T2 sequence (P21462 whole entry): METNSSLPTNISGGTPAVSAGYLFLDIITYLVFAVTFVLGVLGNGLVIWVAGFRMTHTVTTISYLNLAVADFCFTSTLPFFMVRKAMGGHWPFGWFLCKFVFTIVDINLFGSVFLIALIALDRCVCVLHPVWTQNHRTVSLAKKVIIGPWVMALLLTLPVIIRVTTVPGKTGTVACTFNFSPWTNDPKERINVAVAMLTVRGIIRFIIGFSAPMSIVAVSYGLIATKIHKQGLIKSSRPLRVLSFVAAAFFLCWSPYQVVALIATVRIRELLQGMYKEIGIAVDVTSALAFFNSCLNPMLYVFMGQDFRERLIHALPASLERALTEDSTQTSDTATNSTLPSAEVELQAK

Large T antigen = Large T antigen (Simian virus 40, UniProt P03070); assay type: functional, Betapolyomavirus macacae;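 further: Confirmatory-stage PubChem screen for compounds that inhibit SV40 T antigen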
Sequence of Large T antigen (P03070 whole entry): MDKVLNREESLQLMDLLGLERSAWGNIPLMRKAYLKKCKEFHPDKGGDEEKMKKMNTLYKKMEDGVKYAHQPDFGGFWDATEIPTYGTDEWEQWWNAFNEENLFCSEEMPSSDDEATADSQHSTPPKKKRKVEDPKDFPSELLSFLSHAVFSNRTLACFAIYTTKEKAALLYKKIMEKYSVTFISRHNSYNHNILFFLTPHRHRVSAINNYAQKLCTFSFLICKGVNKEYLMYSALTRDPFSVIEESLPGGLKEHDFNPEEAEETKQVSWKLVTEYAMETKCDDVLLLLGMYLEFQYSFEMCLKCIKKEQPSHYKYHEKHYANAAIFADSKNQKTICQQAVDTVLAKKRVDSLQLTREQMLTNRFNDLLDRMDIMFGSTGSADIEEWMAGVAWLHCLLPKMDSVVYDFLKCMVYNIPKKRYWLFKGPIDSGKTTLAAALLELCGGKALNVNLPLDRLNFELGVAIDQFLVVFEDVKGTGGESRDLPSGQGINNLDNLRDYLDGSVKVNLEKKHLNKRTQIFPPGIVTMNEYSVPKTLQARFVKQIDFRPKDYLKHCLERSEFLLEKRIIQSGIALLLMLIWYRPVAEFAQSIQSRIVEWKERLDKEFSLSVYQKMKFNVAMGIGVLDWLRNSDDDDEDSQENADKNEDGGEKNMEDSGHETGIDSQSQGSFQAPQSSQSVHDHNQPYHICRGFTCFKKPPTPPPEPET

Aminopeptidase N = biological target: T3, Aminopeptidase N (Plasmodium falciparum FcB1/Columbia, UniProt O96935); assay: malaria alanyl aminopeptidase activity blockers – biochemical, fluorogenic H-Leu-NHMec substrate, 1536-well (AID 1445); set-up: species or system Plasmodium falciparum 3D7, 3D7
T3 sequence (O96935 whole entry): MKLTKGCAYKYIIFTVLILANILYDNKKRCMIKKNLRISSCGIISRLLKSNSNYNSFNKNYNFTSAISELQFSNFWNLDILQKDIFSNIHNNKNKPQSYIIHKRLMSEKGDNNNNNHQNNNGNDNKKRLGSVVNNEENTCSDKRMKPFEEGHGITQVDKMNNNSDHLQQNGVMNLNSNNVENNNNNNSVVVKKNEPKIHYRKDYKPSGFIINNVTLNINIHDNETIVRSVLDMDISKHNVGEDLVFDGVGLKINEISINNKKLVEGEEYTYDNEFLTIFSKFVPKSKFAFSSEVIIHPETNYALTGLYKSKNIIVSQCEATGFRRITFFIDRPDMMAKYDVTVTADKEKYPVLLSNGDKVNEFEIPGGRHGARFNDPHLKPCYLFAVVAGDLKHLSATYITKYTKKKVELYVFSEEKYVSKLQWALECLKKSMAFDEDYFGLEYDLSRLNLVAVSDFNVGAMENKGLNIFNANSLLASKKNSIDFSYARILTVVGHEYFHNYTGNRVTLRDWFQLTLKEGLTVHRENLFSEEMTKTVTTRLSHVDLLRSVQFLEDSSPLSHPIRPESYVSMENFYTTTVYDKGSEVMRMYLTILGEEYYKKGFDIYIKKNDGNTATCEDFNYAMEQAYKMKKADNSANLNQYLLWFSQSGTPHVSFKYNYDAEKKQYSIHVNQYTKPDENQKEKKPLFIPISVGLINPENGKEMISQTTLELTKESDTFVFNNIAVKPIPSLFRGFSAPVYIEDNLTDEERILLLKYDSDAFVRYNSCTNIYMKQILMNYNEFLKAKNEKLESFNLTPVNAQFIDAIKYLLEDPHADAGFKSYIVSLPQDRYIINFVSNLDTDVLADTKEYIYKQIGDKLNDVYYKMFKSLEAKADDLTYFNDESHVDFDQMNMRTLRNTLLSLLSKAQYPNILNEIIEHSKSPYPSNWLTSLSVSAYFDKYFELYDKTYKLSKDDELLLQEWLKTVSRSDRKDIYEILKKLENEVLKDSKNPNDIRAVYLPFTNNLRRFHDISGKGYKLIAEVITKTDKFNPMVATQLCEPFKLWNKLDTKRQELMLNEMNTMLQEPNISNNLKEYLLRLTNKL

[10] = P. falciparum Dd2 growth inhibitors, dose response, SYBR Green, cherry-picked samples (AID 1159567); assay type: functional, cell-based
Streptococcus = assay: GAS UMAA2166 growth inhibition – luminescence, BacTiterGlo, counter-screen for streptokinase expression inhibitor project, dose response (AID 1915); assay type: functional, organism-based;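 further: potency for reduction of bacterial viability or growth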
Albumin = Albumin (Bos taurus, UniProt P02769); assay: Counterscreen for inhibitors of T-cell receptor (TCR)-CD3 interaction: Fluorescence-based biochemical high throughput dose response assay to identify inhibitors of T-cell receptor (TCR)-CD3 interaction using a TAMRA-labeled BSA probe.; assay type: functional
Sequence of Albumin (P02769 whole entry): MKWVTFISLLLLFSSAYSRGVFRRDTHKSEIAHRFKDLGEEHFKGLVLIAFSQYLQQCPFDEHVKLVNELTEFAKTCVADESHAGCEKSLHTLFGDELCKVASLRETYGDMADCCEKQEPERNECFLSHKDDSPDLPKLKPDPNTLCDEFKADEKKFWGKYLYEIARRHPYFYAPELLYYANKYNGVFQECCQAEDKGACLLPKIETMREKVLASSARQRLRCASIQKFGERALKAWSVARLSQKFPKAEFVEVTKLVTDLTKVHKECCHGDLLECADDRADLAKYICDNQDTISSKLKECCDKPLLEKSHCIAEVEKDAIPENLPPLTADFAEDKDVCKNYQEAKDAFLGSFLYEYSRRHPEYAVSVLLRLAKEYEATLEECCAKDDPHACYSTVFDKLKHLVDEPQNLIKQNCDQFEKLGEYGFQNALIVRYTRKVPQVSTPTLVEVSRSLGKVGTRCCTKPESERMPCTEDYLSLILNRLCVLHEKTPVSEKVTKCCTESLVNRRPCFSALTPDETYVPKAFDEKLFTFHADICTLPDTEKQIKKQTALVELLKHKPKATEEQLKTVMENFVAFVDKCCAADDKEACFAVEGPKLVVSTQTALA

[11] = system: Streptococcus sp. 'group A'; assay: Streptococcus pyogenes SK(-)GAS viability under kanamycin – luminescence, BacTiterGlo, confirmation, counter-screen for streptokinase expression inhibitor project, dose response (AID 1900); assay type: functional, organism-based
Nonstructural protein 1 = Nonstructural protein 1 (Influenza A virus, UniProt Q194T2); assay type: functional, Influenza A virus (A/California/07/2009(H1N1))
Sequence of Nonstructural protein 1 (Q194T2 whole entry): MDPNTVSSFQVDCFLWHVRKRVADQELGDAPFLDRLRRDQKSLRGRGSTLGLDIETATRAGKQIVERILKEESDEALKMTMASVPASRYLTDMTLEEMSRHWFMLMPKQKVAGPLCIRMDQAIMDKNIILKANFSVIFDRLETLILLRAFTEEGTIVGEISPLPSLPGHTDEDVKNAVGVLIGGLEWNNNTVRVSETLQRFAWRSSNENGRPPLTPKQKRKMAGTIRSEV

Cytochrome P450 2D6 = Cytochrome P450 2D6 (Homo sapiens, UniProt P10635);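 further: CYP2D6 member of a cytochrome P450 panel assay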
Sequence of Cytochrome P450 2D6 (P10635 whole entry): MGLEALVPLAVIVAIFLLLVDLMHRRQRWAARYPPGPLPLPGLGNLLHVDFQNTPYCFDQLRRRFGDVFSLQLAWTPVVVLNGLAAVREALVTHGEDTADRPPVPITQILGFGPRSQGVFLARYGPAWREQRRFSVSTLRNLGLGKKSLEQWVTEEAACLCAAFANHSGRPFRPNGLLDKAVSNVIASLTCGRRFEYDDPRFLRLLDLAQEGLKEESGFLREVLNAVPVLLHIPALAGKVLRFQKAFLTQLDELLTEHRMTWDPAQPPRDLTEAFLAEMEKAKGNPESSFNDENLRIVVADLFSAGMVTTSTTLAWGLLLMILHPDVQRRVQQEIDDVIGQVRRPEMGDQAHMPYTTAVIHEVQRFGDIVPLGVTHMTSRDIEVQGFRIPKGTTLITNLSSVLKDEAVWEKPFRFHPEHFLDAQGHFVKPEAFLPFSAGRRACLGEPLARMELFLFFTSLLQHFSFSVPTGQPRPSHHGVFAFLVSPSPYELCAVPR

[12] = cytotoxicity in MITF-independent A375 cells – cell-based, CellTiter-Glo luminescence, dry powder, set 4, counter-screen for MITF inhibitor project, dose response (AID 624364); assay type: functional; conditions: A-375;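 further: A375 melanoma cells are MITF independent so this is a counter screen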
[13] = viability loss in THP-1 monocytes – THP-1 cells, cytotoxicity control for Vif-APOBEC3G degradation inhibitor project, dose response (AID 1117359); assay type: functional; conditions: THP-1
[14] = biological target: T4, Methionyl-tRNA synthetase, putative (Trypanosoma brucei brucei, UniProt Q38C91); assay type: functional, Trypanosoma brucei brucei strain 927/4 GUTat10.1;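 further: Read-out by fluorescence polarization, run as a confirmatory high-throughput counterscreen; potency of MetRS inhibitors measured by reduced AMP formation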
T4 sequence (Q38C91 whole entry): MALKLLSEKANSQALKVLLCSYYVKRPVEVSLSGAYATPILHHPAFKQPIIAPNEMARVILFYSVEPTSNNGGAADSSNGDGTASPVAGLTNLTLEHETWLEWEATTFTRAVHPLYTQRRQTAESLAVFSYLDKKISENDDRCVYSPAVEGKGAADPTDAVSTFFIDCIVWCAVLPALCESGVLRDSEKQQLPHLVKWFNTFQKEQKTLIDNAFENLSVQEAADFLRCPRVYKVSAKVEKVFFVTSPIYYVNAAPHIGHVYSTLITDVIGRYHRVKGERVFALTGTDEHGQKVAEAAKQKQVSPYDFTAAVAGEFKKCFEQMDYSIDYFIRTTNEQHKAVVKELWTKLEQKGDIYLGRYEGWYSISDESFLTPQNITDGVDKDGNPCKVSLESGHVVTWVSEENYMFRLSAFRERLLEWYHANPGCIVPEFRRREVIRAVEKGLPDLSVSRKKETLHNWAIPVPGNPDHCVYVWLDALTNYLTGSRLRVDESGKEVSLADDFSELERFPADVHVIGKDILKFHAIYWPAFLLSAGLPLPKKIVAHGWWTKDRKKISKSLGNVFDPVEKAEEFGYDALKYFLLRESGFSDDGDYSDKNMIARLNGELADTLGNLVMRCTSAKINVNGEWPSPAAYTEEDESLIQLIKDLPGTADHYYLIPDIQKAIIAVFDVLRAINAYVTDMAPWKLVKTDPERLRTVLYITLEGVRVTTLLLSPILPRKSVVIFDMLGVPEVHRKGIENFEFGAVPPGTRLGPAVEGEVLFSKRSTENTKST

[15] = Counterscreen for inhibitors of Trypanosoma brucei methionyl tRNA synthetase (MetRS): Luminescence-based cell-based high throughput dose response assay to identify compounds that are cytotoxic to Jurkat human T lymphocyte cells.; assay type: functional
[16] = THP-1 cell cytotoxicity, dose response, cytotoxicity control for non-replicating M. tuberculosis project (AID 489025); assay type: functional

Sequence of Beta-galactosidase (Q8VNN2 whole entry): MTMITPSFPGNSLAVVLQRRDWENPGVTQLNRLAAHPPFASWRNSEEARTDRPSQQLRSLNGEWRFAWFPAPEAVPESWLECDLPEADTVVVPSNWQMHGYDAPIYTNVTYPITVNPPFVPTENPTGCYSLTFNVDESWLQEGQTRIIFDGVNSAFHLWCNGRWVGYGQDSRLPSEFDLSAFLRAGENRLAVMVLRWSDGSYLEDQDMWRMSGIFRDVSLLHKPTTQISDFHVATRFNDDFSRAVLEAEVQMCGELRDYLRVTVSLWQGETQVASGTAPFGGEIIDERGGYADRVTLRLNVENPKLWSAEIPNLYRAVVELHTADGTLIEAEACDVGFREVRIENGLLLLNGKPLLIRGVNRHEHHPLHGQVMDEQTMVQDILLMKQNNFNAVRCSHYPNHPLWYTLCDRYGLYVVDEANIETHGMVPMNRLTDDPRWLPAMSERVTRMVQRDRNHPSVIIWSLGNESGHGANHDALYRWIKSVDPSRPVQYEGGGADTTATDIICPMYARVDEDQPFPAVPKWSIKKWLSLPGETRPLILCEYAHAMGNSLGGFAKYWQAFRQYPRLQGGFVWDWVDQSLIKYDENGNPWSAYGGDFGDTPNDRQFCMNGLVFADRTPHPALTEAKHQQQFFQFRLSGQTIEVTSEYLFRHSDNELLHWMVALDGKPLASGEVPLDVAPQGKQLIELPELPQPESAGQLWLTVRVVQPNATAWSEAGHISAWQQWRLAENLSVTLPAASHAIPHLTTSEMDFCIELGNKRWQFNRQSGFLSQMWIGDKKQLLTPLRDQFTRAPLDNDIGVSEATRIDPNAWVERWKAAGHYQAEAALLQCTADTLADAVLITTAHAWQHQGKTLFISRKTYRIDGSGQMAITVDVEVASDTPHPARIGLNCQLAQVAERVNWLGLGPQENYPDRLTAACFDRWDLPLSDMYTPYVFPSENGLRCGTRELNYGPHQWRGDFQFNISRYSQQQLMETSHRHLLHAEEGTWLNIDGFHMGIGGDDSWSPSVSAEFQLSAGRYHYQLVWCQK

OC[C@@H]1CN(Cc2cccc(C(F)(F)F)c2)C[C@H](n2cnc3c(NC4CC4)ncnc32)O1
IC50 (Beta-galactosidase): > 80 µM (inactive)

O=C(Cn1nc(C(=O)O)c2ccccc2c1=O)c1c[nH]c2ccccc12
IC50 (H9c2): > 79 µM (inactive) | IC50 (Beta-galactosidase): > 80 µM (inactive)

CCOC(=O)C1=C(C)N(Cc2ccccc2)C(=O)NC1c1ccccc1OS(=O)(=O)c1ccccc1[N+](=O)[O-] (stereo unspecified)
CC50 [1]: 5.56 µM (active) | IC50 [2]: > 69.5 µM (inactive) | IC50 [3]: > 69.5 µM (inactive)

O=C(CCN1CCC(c2ccccc2)C1)c1ccc2c(c1)OCCO2 (stereo unspecified) [PROROXAN HYDROCHLORIDE]
EC50 (cells [4]): > 29.9 µM (inactive) | EC50 [5]: 36.3 µM (active) | EC50 [6]: 34.3 µM (active) | AC50 (HEK293): 76.8 µM (active) | EC50 [7]: 0.21 µM (active) | IC50 [8]: 1.46 µM (active) | IC50 (cells [9]): > 29.9 µM (inactive)

CCc1nc2ccc(C(=O)Nc3cccc(OC)c3)cn2c1N(CC)Cc1cccc(Br)c1
IC50 [2]: > 69.5 µM (inactive) | IC50 [3]: > 69.5 µM (inactive)

O=C(NC1CCCC1)c1sc(=S)n2c1[nH]c(=O)c1ccccc12
Ki (fMet-Leu-Phe receptor): 14.7 µM (active) | IC50 (Large T antigen): > 100 µM (active) | IC50 (Aminopeptidase N): 35 µM (active)

O=C(C[C@H]1CC[C@@H]2[C@H](COC[C@@H](O)CN2C(=O)Nc2ccc3c(c2)OCO3)O1)N1CCN(c2ccccc2)CC1
AC50 [10]: 22.8 µM (active)

COCCCN1C(=O)C(O)=C(C(=O)c2ccc3c(c2)CC(C)O3)C1c1cccnc1 (stereo unspecified)
Ki (fMet-Leu-Phe receptor): > 66.7 µM (inactive)

O=C(N/N=C/c1cc([N+](=O)[O-])ccc1O)c1cccc(N2CCCC2=O)c1
EC50 (Streptococcus): 1.9 µM (active) | IC50 (Albumin): > 94.1 µM (inactive) | EC50 [11]: 0.935 µM (active) | IC50 (Nonstructural protein 1): 6.59 µM (active)

COc1ccc(-c2cc(C(F)(F)F)nc(NC3CCCC3)n2)cc1OC
Ki (fMet-Leu-Phe receptor): > 66.7 µM (inactive) | AC50 (Cytochrome P450 2D6): 20 µM (inconclusive)

CN(C)c1ccc(/C=N/CC2COc3ccccc3O2)cc1 (stereo unspecified)
EC50 (cells [4]): > 29.9 µM (inactive) | EC50 [7]: 4.25 µM (active) | IC50 [8]: 14.3 µM (inactive) | IC50 (cells [9]): > 29.9 µM (inactive)

CCc1ccccc1NC(=O)NNC(=O)c1ccc2ccccc2c1O
IC50 (Albumin): > 94.1 µM (inactive)

O=C(Nc1ccc(Cl)cc1)N1CCC(c2ccccc2)C1 (stereo unspecified)
IC50 (Beta-galactosidase): > 80 µM (inactive)

O=C1C(NS(=O)(=O)c2ccc(Br)cc2)=C(N2CCN(c3ccccc3)CC2)C(=O)c2ccccc21
AC50 [12]: > 70 µM (inactive)

Nc1c(S(=O)(=O)c2ccccc2)c2nc3ccccc3nc2n1/N=C/c1ccco1
CC50 [13]: > 40 µM (active) | IC50 (Beta-galactosidase): > 80 µM (inactive)

O=C(Nc1ccccc1)Nc1ccc(S(=O)(=O)N2CCCCC2)cc1
IC50 [14]: 26.9 µM (inactive) | IC50 [15]: 47.5 µM (inactive)

OC(c1ccccc1)(c1nc(-c2cccc(C(F)(F)F)c2)cs1)C(F)(F)F (stereo unspecified)
IC50 [2]: 11.2 µM (inactive) | IC50 [3]: > 69.5 µM (inactive)

CCOc1ccc(CCN2C(=S)N([C@@H](Cc3ccc(O)cc3)CN3CCC[C@@H]3CN3C(=S)NC[C@@H]3CC(C)C)C[C@@H]2Cc2ccccc2)cc1
IC50 [2]: > 69.5 µM (inactive) | IC50 [3]: > 69.5 µM (inactive)

COc1ccc(C(=O)C=CNNC(=O)c2ccc(Cl)cc2)cc1
IC50 (Albumin): > 94.1 µM (inactive) | CC50 [16]: 15.6 µM (active)

NCCc1nc(-c2ccccc2)cs1
EC50 (cells [4]): > 29.9 µM (inactive) | EC50 [7]: 4.72 µM (active) | IC50 [8]: > 29.9 µM (inactive) | IC50 (cells [9]): > 29.9 µM (inactive)

S=C1SCN(CCc2ccccc2)CN1CCc1ccccc1
EC50 (cells [4]): > 29.9 µM (inactive) | EC50 [7]: 2.11 µM (active) | IC50 [8]: 3.35 µM (active) | IC50 (cells [9]): > 29.9 µM (inactive)
